Assay results published in patent US10738031B2, “N-[(heteroaryloxy)propanyl]heteroaryl carboxamides as antagonists of orexin subtype 1 receptor activity” (Boehringer Ingelheim International GmbH, priority 2016, dated 2020).

Experiments:
[1] = Assay C: Human MST t1/2 (stability in human liver microsomes); type: in vitro ADME; conditions: human liver microsomes
human orexin 2 receptor = biological target: T1, human orexin 2 receptor (Homo sapiens, UniProt O43614); assay: Assay B: OX2R IP1 (in vitro OX2R potency); type: cell-based; conditions: Table 3; 0.5 nM Orexin A concentration
T1 construct: stably expressing the full-length human orexin 2 receptor; expressed in transfected cells; host or cells: CHO-K1 (CHO-K1/hOX2), co-expressing aequorin
T1 sequence (O43614 1-444): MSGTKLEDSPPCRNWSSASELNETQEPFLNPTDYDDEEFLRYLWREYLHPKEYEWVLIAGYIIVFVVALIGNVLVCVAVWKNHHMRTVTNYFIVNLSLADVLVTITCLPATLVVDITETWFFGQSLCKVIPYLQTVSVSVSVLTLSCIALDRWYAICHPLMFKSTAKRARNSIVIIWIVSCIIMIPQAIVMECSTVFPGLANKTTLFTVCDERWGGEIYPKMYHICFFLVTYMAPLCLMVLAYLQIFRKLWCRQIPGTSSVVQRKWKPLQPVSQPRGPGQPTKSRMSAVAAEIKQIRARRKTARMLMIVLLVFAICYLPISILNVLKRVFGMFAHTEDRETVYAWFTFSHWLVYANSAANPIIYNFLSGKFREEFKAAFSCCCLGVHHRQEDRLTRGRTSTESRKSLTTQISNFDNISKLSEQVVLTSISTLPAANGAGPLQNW
From the text: Activation of the orexin receptors expressed in cell lines results in an increase in intracellular IP3 concentration. IP1, a downstream metabolite of IP3, accumulates in cells following receptor activation and is stable in the presence of LiCl. Using Homogeneous Time-Resolved Fluorescence technology with Lumi4-Tb cryptate (commercially available from Cisbio Bioassay.) and a suitable fluorescence plate reader. This functional response is detectable and quantifiable as described in Trinquet et al. Anal. […] Curr. Chem. Genomics 2009, 3, 22-32. This technique is used to characterize pharmacological modification of the orexin receptors. B. In Vitro Testing of OX2R Potency: OX2R IP1 IP1 measurements are performed in CHO-K1 cells stably expressing the full-length human orexin 2 receptor and the aequorin photoprotein. Cells are cultivated in Ham's nutrient mixture F12 medium with 10% fetal calf serum, in a 37° C., 95% humidity and 5% CO2 incubator. The CHO-K1/hOX2 cell mass is expanded to larger cell numbers. The cells are obtained as frozen cells in cryo-vials and stored until use at -150° C. The viability of the cells after thawing is >90%. In preparation for the assay, 24 hours before the assay, the cells are thawed at 37° C. and immediately diluted with cell culture medium. After centrifugation, the cell pellet is resuspended in medium and then distributed into the assay plates with a density of 5000 cells/25 μL per well. The plates are incubated for one hour at room temperature to reduce edge effects before they are incubated for 24 hours at 37° C./5% CO2. […] On the day of the assay, cells in the plate are washed twice with 60 μL assay buffer (20 μL buffer remained in the wells after washing), followed by adding 5 μL per well of compounds diluted in assay buffer. […] The assay plate is incubated for 60 minutes at 37° C. Then 5 μL per well of Anti-IP1-Cryptate Tb solution and 5 μL per well of IP1-d2 dilution are added to all well of the plate and the plate is incubated for a further 60 minutes light protected at room temperature. […] The ratio between the emission at 665 nm and 615 is calculated by the reader. […] AssayExplorer (Accelrys). In order to establish an agonist concentration independent parameter, Kb values are calculated using the following equation: […] Sci. 1993, 14(4), 110-112).

human Orexin 1 receptor = biological target: T2, human Orexin 1 receptor (Homo sapiens, UniProt O43613); assay: Assay A: OX1R IP1 (in vitro OX1R potency); type: cell-based; conditions: for Kb: Table 3
T2 construct: stably expressing the full-length human Orexin 1 receptor; expressed in transfected cells; host or cells: CHO-K1 (CHO-K1/hOX1), co-expressing aequorin
T2 sequence (O43613 1-425): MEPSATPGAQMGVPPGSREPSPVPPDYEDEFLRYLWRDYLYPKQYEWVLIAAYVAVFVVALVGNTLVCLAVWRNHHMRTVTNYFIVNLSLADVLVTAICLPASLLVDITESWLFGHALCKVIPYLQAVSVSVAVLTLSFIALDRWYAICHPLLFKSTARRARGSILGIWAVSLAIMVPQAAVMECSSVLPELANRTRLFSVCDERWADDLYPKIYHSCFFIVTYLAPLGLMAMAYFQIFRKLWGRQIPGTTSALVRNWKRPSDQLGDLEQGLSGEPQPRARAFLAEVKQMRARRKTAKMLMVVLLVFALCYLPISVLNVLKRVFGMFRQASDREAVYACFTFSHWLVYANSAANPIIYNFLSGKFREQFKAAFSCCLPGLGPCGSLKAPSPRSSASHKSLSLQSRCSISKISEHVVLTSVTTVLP

| Structure (SMILES) | half-life [1] [min] | Kb (human orexin 2 receptor) [nM] | OX2R Kb/OX1R Kb (human Orexin 1 receptor) | Kb (human Orexin 1 receptor; Orexin A concentration 50 nM) [nM] | Kb (human Orexin 1 receptor; Orexin A concentration 0.5 nM) [nM] |
| --- | --- | --- | --- | --- | --- |
| CCN(C(=O)c1nc(C)ccc1-n1nccn1)[C@@H](C)COc1ccc(C(F)(F)F)cn1 [Example 5] | 25 | 59 | 393 | 0.15 | – |
| CCN(C(=O)c1ncccc1-n1nccn1)[C@@H](C)COc1ccc(Cl)cn1 [Example 71] | 63 | 339 | 113 | – | 3 |
| CCN(C(=O)c1nc(C)ccc1-n1nccn1)[C@@H](C)COc1ncc(C(F)(F)F)cn1 [Example 23] | 110 | 2900 | 439 | – | 6.6 |
| CCN(C(=O)c1ccc(C(F)(F)F)nc1-c1ccn(C)n1)[C@@H](C)COc1ccc(C(F)(F)F)cn1 [Example 28] | 11 | 705 | 353 | – | 2 |
| CCN(C(=O)c1ncc(F)cc1-c1ccn(C)n1)[C@@H](C)COc1ccc(C(F)(F)F)cn1 [Example 37] | 24 | 802 | 243 | – | 3.3 |
| CCN(C(=O)c1cc(C)cnc1-c1ccn(C)n1)[C@@H](C)COc1ccc(C(F)(F)F)cn1 [Example 27] | 31 | 134 | – | 0.69 | 0.87 |
| CCN(C(=O)c1c(F)cncc1-n1cccn1)[C@@H](C)COc1ccc(C(F)(F)F)cn1 [Example 24] | 29 | 1070 | 167 | – | 6.4 |
| CCN(C(=O)c1cccnc1-n1nccn1)[C@@H](C)COc1ccc(C(F)(F)F)cn1 [Example 61] | > 130 | 678 | 294 | – | 2.31 |
| CCN(C(=O)c1cc(C(F)(F)F)cnc1-n1cccn1)[C@@H](C)COc1ccc(C(F)(F)F)cn1 [Example 3] | 83 | 212 | 177 | 1.2 | 1.2 |
| CCN(C(=O)c1ncccc1-c1ccccc1)[C@@H](C)COc1ncc(C(F)(F)F)cn1 [Example 15] | 96 | 705 | 157 | – | 4.5 |
| CCN(C(=O)c1cc(F)cnc1-n1nccn1)[C@@H](C)COc1ncc(C(F)(F)F)cc1F [Example 21] | > 130 | 2700 | 817 | – | 3.3 |
| CCN(C(=O)c1cc(F)cnc1-n1nccn1)[C@@H](C)COc1ccc(Cl)cn1 [Example 22] | 82 | 1010 | 215 | – | 4.7 |
| CCN(C(=O)c1cc(OC)cnc1-n1nccn1)[C@@H](C)COc1ncc(C(F)(F)F)cc1F [Example 54] | > 130 | 578 | 649 | – | 0.89 |
| CCN(C(=O)c1cnccc1-n1nccn1)[C@@H](C)COc1ccc(Cl)cn1 [Example 48] | 33 | 381 | 147 | – | 2.6 |
| CCN(C(=O)c1ccc(OC)nc1-c1ccn(C)n1)[C@@H](C)COc1ccc(C(F)(F)F)cn1 [Example 32] | 12 | 106 | 707 | 0.15 | – |
| CCN(C(=O)c1cc(F)cnc1-n1nccn1)[C@@H](C)COc1ccc(C(F)(F)F)cn1 [Example 6] | > 130 | 844 | – | 1.5 | 1.2 |
| CCN(C(=O)c1cc(OC)ncc1-c1ccn(C)n1)[C@@H](C)COc1ccc(C(F)(F)F)cn1 [Example 38] | 12 | 323 | 135 | – | 2.4 |
| CCN(C(=O)c1ncc(C)cc1-n1cccn1)[C@@H](C)COc1ccc(C(F)(F)F)cn1 [Example 64] | 20 | 275 | 688 | 0.4 | – |
| CC[C@@H](CNc1ccc(C(F)(F)F)cn1)N(CC)C(=O)c1nc(C)ccc1-n1nccn1 [Ex 71 in WO2016/ 034882, reference compound] | 4.5 | 27 | – | – | – |
